Values after ≈ are worked out from the molar mass of the structure shown. Values joined by “and” are separate entries in the source; they are usually repeats but may differ in a detail not shown here. Identical values can stand only once. Like-named read-outs stand apart in the source and are kept apart here.
Key:
[1] = Cytotoxicity MTT assay; type: cell-based, human; settings: human
Procedure, shortened: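 Duplicate wells were used, with viability calculated against untreated and positive-control wells. Readout was MTT reduction: 2 h with 0.4 mg mL^−1 MTT, formazan dissolved in DMSO, absorbance at 570 nm. Before that, compound was applied 24 h at 37 °C over 100–0.046 µM (threefold dilutions) to HepG2 or HEK293 cells seeded 24 h earlier in DMEM/1% FBS.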

[2] = test system: Methicillin-resistant S. aureus ATCC 43300; assay: microbe, parasite or virus in culture; settings: for MIC: Staphylococcus aureus, ATCC43300|MRSA; for MIC S. aureus ATCC 43300 MRSA, PS: polystyrene plate, no polysorbate-80
Procedure, shortened: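 Growth inhibition measured by broth microdilution (MHB, 37 °C, 24 h incubation). MIC defined visually as the lowest inhibitory concentration.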

[3] = Cytotoxicity MTT assay; type: cell-based, human; settings: human; remark: listed apart in the source
[4] = test system: Vancomycin-resistant S. aureus NARSA VRS4; assay: microbe, parasite or virus in culture; type: cell-based, Staphylococcus aureus; settings: for MIC: Staphylococcus aureus, VRSA, read-out: MIC VRSA
[5] = test system: S. aureus ATCC 43300; assay: Membrane permeability assay (propidium iodide); type: cell-based, Staphylococcus aureus
Procedure: To evaluate the ability of the compounds to disrupt the cytoplasmic membrane integrity, the membrane impermeable fluorescent DNA intercalating dye propidium iodide (PI) was used. Early exponential phase cells were pelleted and washed twice in 10 mM HEPES buffer (pH 7.4) containing 50 µg mL^−1 of CaCl2 and 5 mM glucose, and then re-suspended in the same buffer (4 × 10^8 CFU mL^−1). Cell suspension was added to a 384-well black walled polystyrene plate (Corning, CLS3573) containing compounds, giving a final concentration of 16 µg mL^−1. After 1 h incubation at 37 °C, 5 µg mL^−1 of PI was added and fluorescence was monitored for 90 min using a Tecan Infinite® m1000 Pro Multi-mode reader (excitation/emission 535/620 nm). Data were corrected by subtraction of fluorescence signal arising from untreated cells in the presence of PI. […] Each sample was tested in quadruplicate and independent assays were performed twice showing similar results. Data was analysed and presented using Prism software.

[6] = test system: Methicillin-sensitive S. aureus ATCC 29213; assay: microbe, parasite or virus in culture; type: cell-based, Staphylococcus aureus; settings: for MIC: Staphylococcus aureus, ATCC 29213 / MSSA; for MIC S. aureus ATCC29213 MSSA, NBS: non-binding surface plate; for MIC S. aureus ATCC29213 MSSA, PS+P-80: polystyrene plate with 0.002% polysorbate-80
Procedure: Antimicrobial activity of compounds was tested against a number of bacterial strains by broth microdilution (BMD) assay with MIC determination, including S. aureus (MSSA ATCC® 29213™, MRSA ATCC® 43300™, VISA NARSA NRS1, VISA NARSA NRS4), Streptococcus pneumoniae (MDR ATCC® 700677™) and Enterococcus faecium (MDR VanA ATCC® 51559™). ATCC strains were sourced from the American Type Culture Collection and NRS strains from NARSA (Network on Antimicrobial Resistance in S. aureus) via BEI Resources (www.beiresources.org). All compounds were prepared to 160 µg mL^−1 solution in water from a stock solution of 1 mM concentration.
[…] […] Standards ranged from 64 to 0.03 µg mL^−1 and compounds from 8 to 0.003 µg mL^−1 with final assay volumes of 100 µL per well. Gram-positive bacteria were cultured in Mueller Hinton broth (MHB) (Bactolaboratories, Cat. no. 211443) at 37 °C overnight. A sample of each culture was then diluted 40-fold in fresh MHB and incubated at 37 °C for 2–3 h. The resultant mid-log phase cultures were added to the compound-containing 96-well plates to give a final cell density of 5 × 10^5 colony forming unit (CFU) mL^−1. All the plates were covered and incubated at 37 °C for 24 h. MICs were the lowest concentration showing no visible growth.

[7] = 24 h, MTT, 1% FBS, read-out: Cytotoxicity CC50 HEK293
[8] = 24 h, read-out: MIC MRSA, S. aureus ATCC 43300, NBS plates, MHB, 24 h, substance alone
[9] = read-out: MIC S. aureus ATCC 43300 MRSA, NBS, non-binding surface plate
[10] = read-out: MIC S. aureus ATCC 43300 MRSA, PP, polypropylene plate
[11] = read-out: MIC S. aureus ATCC 43300 MRSA, PS+P-80, polystyrene plate with 0.002% polysorbate-80
[12] = read-out: MIC S. aureus ATCC 43300 MRSA, PS, polystyrene plate, no polysorbate-80
[13] = 24 h, MTT, 1% FBS, read-out: Cytotoxicity CC50 HepG2
[14] = read-out: MIC S. aureus ATCC29213 MSSA, NBS
[15] = read-out: MIC S. aureus ATCC29213 MSSA, PP
[16] = read-out: MIC S. aureus ATCC29213 MSSA, PS
[17] = read-out: MIC S. aureus ATCC29213 MSSA, PS+P-80
[18] = S. aureus ATCC 43300, NBS plates, MHB, 24 h, substance alone

Structure (SMILES)	CC50 at 24 h [1, 7]	MIC [2, 8]	MIC [2, 9]	MIC [2, 10]	MIC [2, 11]	MIC [2, 12]	CC50 at 24 h [3, 13]	MIC [4]	MIC ([6]; read-out: MIC MSSA)	MIC [6, 14]	MIC [6, 15]	MIC [6, 16]	MIC [6, 17]	MIC MRSA [2, 18]	MIC S. aureus ATCC 43300 MRSA, PS [2]	Membrane permeabilisation (propidium iodide fluorescence) [5]	MIC S. aureus ATCC29213 MSSA, NBS [6]	MIC S. aureus ATCC29213 MSSA, PS+P-80 [6]	CC50 at 24 h [1]	CC50 at 24 h [3]	other results
CN[C@H](CC(C)C)C(=O)N[C@H]1C(=O)N[C@@H](CC(N)=O)C(=O)N[C@H]2C(=O)N[C@H]3C(=O)N[C@H](C(=O)N[C@H](C(=O)O)c4cc(O)cc(O)c4-c4cc3ccc4O)[C@H](O)c3ccc(c(Cl)c3)Oc3cc2cc(c3O[C@@H]2O[C@H](CO)[C@@H](O)[C@H](O)[C@H]2O[C@H]2C[C@](C)(N)[C@H](O)[C@H](C)O2)Oc2ccc(cc2Cl)[C@H]1O [Compound 1, Vancomycin]	5900 µM	1 µg/mL (≈ 0.69 µM)	1 µg/mL (≈ 0.69 µM)	2 µg/mL (≈ 1.38 µM)	2 µg/mL (≈ 1.38 µM)	2 µg/mL (≈ 1.38 µM)	6300 µM	> 64 µg/mL	1 µg/mL (≈ 0.69 µM)	1 µg/mL (≈ 0.69 µM)	1 µg/mL (≈ 0.69 µM)	2 µg/mL (≈ 1.38 µM)	1 to 2 µg/mL (≈ 0.69 to 1.38 µM)	–	–	–	–	–	–	–	Membrane permeabilisation (propidium iodide fluorescence) ([5]; 16 µg mL^−1, 1 h, MRSA ATCC 43300): little to no effect
CN[C@H]1C(=O)N[C@@H]2Cc3ccc(cc3)Oc3cc4cc(c3O[C@@H]3O[C@H](C(=O)O)[C@@H](O)[C@H](O)[C@H]3NC(=O)CCCCCCCCC(C)C)Oc3ccc(cc3Cl)[C@@H](O)[C@@H]3NC(=O)[C@H](NC(=O)[C@@H]4NC(=O)[C@@H](NC2=O)c2cc(cc(O)c2Cl)Oc2cc1ccc2O)c1ccc(O)c(c1)-c1c(O[C@H]2O[C@H](CO)[C@@H](O)[C@H](O)[C@@H]2O)cc(O)cc1[C@@H](C(=O)NCCCN(C)C)NC3=O [Compound 3, Dalbavancin]	–	–	–	–	–	–	–	–	–	–	–	–	–	0.06 µg/mL and 0.03 µg/mL	0.25 µg/mL (≈ 0.138 µM)	little to no effect	≤ 0.016 µg/mL	≤ 0.016 µg/mL	–	–	MIC S. aureus ATCC 43300 MRSA, NBS ([2]; non-binding surface plate): ≤ 0.016 µg/mL; MIC S. aureus ATCC 43300 MRSA, PP ([2]; polypropylene plate): 0.063 µg/mL (≈ 0.0347 µM); MIC S. aureus ATCC 43300 MRSA, PS+P-80 ([2]; polystyrene plate with 0.002% polysorbate-80): ≤ 0.016 µg/mL; MIC MSSA ([6]; S. aureus ATCC 29213): ≤0.016 µg/mL; MIC S. aureus ATCC29213 MSSA, PP ([6]; polypropylene plate): 0.125 µg/mL (≈ 0.0688 µM); MIC S. aureus ATCC29213 MSSA, PS ([6]; polystyrene plate, no polysorbate-80): 0.25 µg/mL (≈ 0.138 µM)
CN[C@H](CC(C)C)C(=O)N[C@H]1C(=O)N[C@@H](CC(N)=O)C(=O)N[C@H]2C(=O)N[C@H]3C(=O)N[C@H](C(=O)N[C@H](C(=O)O)c4cc(O)cc(O)c4-c4cc3ccc4O)[C@H](O[C@H]3C[C@](C)(N)[C@@H](O)[C@H](C)O3)c3ccc(c(Cl)c3)Oc3cc2cc(c3O[C@@H]2O[C@H](CO)[C@@H](O)[C@H](O)[C@H]2O[C@H]2C[C@](C)(NCc3ccc(-c4ccc(Cl)cc4)cc3)[C@@H](O)[C@H](C)O2)Oc2ccc(cc2Cl)[C@H]1O [Compound 5, Oritavancin, reference compound]	29 µM	0.06 µg/mL (≈ 0.0335 µM)	≤ 0.016 µg/mL	1 µg/mL (≈ 0.558 µM)	≤ 0.016 µg/mL	1 µg/mL (≈ 0.558 µM)	25 µM	0.125 µg/mL (≈ 0.0697 µM)	≤ 0.016 µg/mL	≤ 0.016 µg/mL	1 µg/mL (≈ 0.558 µM)	1 µg/mL (≈ 0.558 µM)	0.031 µg/mL (≈ 0.0173 µM)	–	–	–	–	–	–	–	–
CCCCCCCCCCCCCC(=O)N[C@@H](CCCCN)C(=O)N[C@@H](CCCCN)C(=O)N[C@@H](CCCCN)C(=O)N[C@@H](CCCCNC(=O)[C@H]1NC(=O)[C@H]2NC(=O)[C@H](NC(=O)[C@@H]3NC(=O)[C@H](CC(N)=O)NC(=O)[C@H](NC(=O)[C@@H](CC(C)C)NC)[C@H](O)c4ccc(c(Cl)c4)Oc4cc3cc(c4O[C@@H]3O[C@H](CO)[C@@H](O)[C@H](O)[C@H]3O[C@H]3C[C@](C)(N)[C@H](O)[C@H](C)O3)Oc3ccc(cc3Cl)[C@H]2O)c2ccc(O)c(c2)-c2c(O)cc(O)cc21)C(=O)O [Compound 17, nC13CO-KKK-K(Vancomycin)-OH]	–	–	–	–	–	–	–	–	–	–	–	–	–	–	1 µg/mL and 1 to 2 µg/mL	comparable fluorescence intensity to oritavancin	≤ 0.016 µg/mL	≤ 0.016 µg/mL	19 µM	15 µM	MIC S. aureus ATCC 43300 MRSA, NBS ([2]; ATCC 43300): ≤ 0.016 µg/mL; MIC S. aureus ATCC 43300 MRSA, PP ([2]; ATCC 43300): 1 µg/mL (≈ 0.46 µM); MIC S. aureus ATCC 43300 MRSA, PS+P-80 ([2]; ATCC 43300): ≤ 0.016 µg/mL; MIC MRSA ([2]; ATCC 43300, 24 h): <0.003 µg/mL; MIC S. aureus ATCC29213 MSSA, PP ([6]; ATCC 29213): 1 to 2 µg/mL; MIC S. aureus ATCC29213 MSSA, PS ([6]; ATCC 29213): 1 µg/mL (≈ 0.46 µM)
CCCCCCCCCCC(=O)N[C@@H](CCCCN)C(=O)N[C@@H](CCCCN)C(=O)N[C@@H](CCCCN)C(=O)N[C@@H](CCCCNC(=O)[C@H]1NC(=O)[C@H]2NC(=O)[C@H](NC(=O)[C@@H]3NC(=O)[C@H](CC(N)=O)NC(=O)[C@H](NC(=O)[C@@H](CC(C)C)NC)[C@H](O)c4ccc(c(Cl)c4)Oc4cc3cc(c4O[C@@H]3O[C@H](CO)[C@@H](O)[C@H](O)[C@H]3O[C@H]3C[C@](C)(N)[C@H](O)[C@H](C)O3)Oc3ccc(cc3Cl)[C@H]2O)c2ccc(O)c(c2)-c2c(O)cc(O)cc21)C(=O)O [Compound 18, nC10CO-KKK-K(Vancomycin)-OH]	–	–	–	–	–	–	–	–	–	–	–	–	–	–	–	–	–	–	108 µM	106 µM	MIC MRSA ([2]; ATCC 43300, 24 h): 0.045 µg/mL (≈ 0.0211 µM); MIC VRSA ([4]; Vancomycin-resistant NARSA VRS4): 0.5 µg/mL (≈ 0.235 µM)
CCCCCCCCCCC(=O)N[C@@H](CCCCN)C(=O)N[C@@H](CCCCN)C(=O)N[C@@H](CCCCNC(=O)[C@H]1NC(=O)[C@H]2NC(=O)[C@H](NC(=O)[C@@H]3NC(=O)[C@H](CC(N)=O)NC(=O)[C@H](NC(=O)[C@@H](CC(C)C)NC)[C@H](O)c4ccc(c(Cl)c4)Oc4cc3cc(c4O[C@@H]3O[C@H](CO)[C@@H](O)[C@H](O)[C@H]3O[C@H]3C[C@](C)(N)[C@H](O)[C@H](C)O3)Oc3ccc(cc3Cl)[C@H]2O)c2ccc(O)c(c2)-c2c(O)cc(O)cc21)C(N)=O [Compound 21, nC10CO-KK-K(Vancomycin)-NH2]	–	–	–	–	–	–	–	–	–	–	–	–	–	0.007 µg/mL (≈ 0.0035 µM)	–	–	–	–	113 µM	131 µM	–
